# Test results reported in patent US20070060501A1 (priority 2005, published 2007).
# “And” between values parts separate entries of the source, which are not always exact repeats. Equal entries are not always repeated. “Also recorded” adds a separate entry of the source. Where two headings read alike, the source gives them in different places.
# What was measured:
# spinal alpha-2 receptors = type: in vivo, rat
# Sprague-Dawley rats [1] = test: Effect on analgesia produced by a single spinal dose of morphine (tail flick and paw pressure tests); type: in vivo, rat
# Sprague-Dawley rats [2] = test: Acute tolerance to spinal morphine: three successive intrathecal injections at 90 minute intervals, cumulative morphine dose-response curves 24 hours later (tail flick and paw pressure tests); type: in vivo, rat; conditions: for development of acute tolerance to morphine: ultra-low dose administration, intrathecal
# mice = conditions: cited from earlier work
# Sprague-Dawley rats [3] = test: Chronic tolerance to spinal morphine: daily intrathecal injection for 5 days, cumulative dose-response curves on day 6 (tail flick and paw pressure tests); type: in vivo, rat
# Sprague-Dawley rats [4] = test: Reversal of pre-existing morphine analgesic tolerance by ultra-low dose atipemazole (tail flick and paw pressure tests)
# mouse = conditions: in vivo; cited from earlier work
# [5] = idazoxan 0.08 ng with morphine 15 μg intrathecal
# [6] = idazoxan ultra-low doses (0.008, 0.016, 0.08 ng) with morphine 15 μg x 3
# [7] = mirtazapine 2 μg with clonidine 13.3 μg intrathecal
# [8] = mirtazapine 0.02 ng co-injection with morphine 15 μg x 3
# [9] = mirtazapine 0.02 ng with morphine 15 μg x 3
# [10] = single mirtazapine exposure 0.02 ng 30 minutes prior to repeated morphine
# [11] = group receiving repeated morphine injections (15 μg x 3) vs saline-treated control
# [12] = saline-treated control group, cumulative intrathecal dose-response curve 24 hours after treatment
# [13] = group receiving chronic morphine alone (15 μg for 10 days)
# [14] = group receiving morphine (15 μg for 10 days) with atipemazole 0.8 ng from day 6 for 5 days
smiles,measurement,setting,value
Clc1cccc(Cl)c1N=C1NCCN1 [clonidine],"analgesic response to clonidine, paw pressure test","spinal alpha-2 receptors; rat, in vivo",lesser effect
same,"analgesic response to clonidine, tail flick test","spinal alpha-2 receptors; rat, in vivo",maximal analgesic response
c1ccc2c(c1)OCC(C1=NCCN1)O2 (centres unmarked) [idazoxan],"effect on peak clonidine analgesia, tail flick test",spinal alpha-2 receptors; idazoxan 10 μg with clonidine 13.3 μg intrathecal,decreased significantly
same,"effect on morphine analgesia, both tail flick and paw pressure tests",Sprague-Dawley rats [1]; [5],significantly extended morphine analgesia
same,"effect on peak morphine analgesia, paw pressure test",Sprague-Dawley rats [1]; [5],augmented peak morphine analgesia
same,"effect on the shift of the morphine dose-response curve, both tail flick and paw pressure tests","Sprague-Dawley rats [2]; idazoxan 0.008 ng, 0.016 ng with morphine 15 μg x 3",prevented the rightward shift
same,"effect on the increase in morphine ED50, both tail flick and paw pressure tests","Sprague-Dawley rats [2]; idazoxan 0.008, 0.016 and 0.08 ng co-injection with morphine 15 μg x 3",prevented the increase in ED50
same,analgesic response to repeated administration alone,"Sprague-Dawley rats [2]; idazoxan alone at 0.008 and 0.016 ng, injected at 90 minute intervals",no significant analgesic response
same,"effect on peak morphine analgesia, tail flick test",Sprague-Dawley rats [2]; idazoxan lowest dose 0.008 ng with morphine 15 μg x 3,reduced the peak morphine analgesia
same,"effect on the decline of morphine analgesia, paw pressure test",Sprague-Dawley rats [2]; [6],arrested the decline of the analgesic effect
same,"effect on the decline of morphine analgesia, tail flick test",Sprague-Dawley rats [2]; [6],less effective at arresting the decline
same,development of acute tolerance to morphine,Sprague-Dawley rats [2],very effectively inhibit
COCCc1ccc(OCC(O)CNC(C)C)cc1 (centres unmarked) [metoprolol],development of tolerance to morphine analgesia,mice,suppress the development of tolerance
CN1CCN2c3ncccc3Cc3ccccc3C2C1 (centres unmarked) [mirtazapine],"effect on clonidine analgesia, paw pressure test",spinal alpha-2 receptors; 10 μg with clonidine 13.3 μg intrathecal (FIG. 28B),almost abolished
same,"effect on clonidine analgesia, paw pressure test",spinal alpha-2 receptors; [7],almost abolished
same,"effect on peak clonidine analgesia, tail flick test",spinal alpha-2 receptors; [7],decreased significantly
same,"effect on peak morphine analgesia, tail flick test",Sprague-Dawley rats [1]; mirtazapine 0.2 ng with morphine 15 μg intrathecal,reduced the peak morphine analgesia
same,"effect on morphine analgesia, paw pressure test",Sprague-Dawley rats [1]; mirtazapine 0.02 and 0.2 ng with morphine 15 μg intrathecal,significantly extended morphine analgesia
same,"effect on duration of morphine analgesia, tail flick test","Sprague-Dawley rats [1]; mirtazapine 0.02 and 0.2 ng with morphine 15 μg intrathecal, particularly at 0.02 ng",extended morphine analgesia
same,"effect on the increase in morphine ED50, paw pressure test",Sprague-Dawley rats [2]; [8],completely prevented the increase in ED50
same,"effect on the increase in morphine ED50, tail flick test",Sprague-Dawley rats [2]; [8],partially prevented the increase in ED50
same,"effect on peak morphine analgesia, tail flick test",Sprague-Dawley rats [2]; [9],reduced the peak morphine analgesia
same,"effect on the decline of morphine analgesia, paw pressure test",Sprague-Dawley rats [2]; [9],arrested the decline of the analgesic effect
same,"effect on the decline of morphine analgesia, tail flick test",Sprague-Dawley rats [2]; [9],less effective at arresting the decline
same,"effect on the shift of the morphine dose-response curve, paw pressure test",Sprague-Dawley rats [2]; [9],prevented the rightward shift
same,"morphine dose-response curves of morphine and morphine-mirtazapine groups, tail flick test",Sprague-Dawley rats [2]; [9],showed an overlap at upper dose range of the opioid agonist
same,"prevention of the right shift of the morphine dose response curve, paw pressure vs tail flick test",Sprague-Dawley rats [2]; single mirtazapine dose 0.02 ng 30 minutes prior to morphine 15 μg x 3,more effective in the paw pressure test at preventing the right shift
same,"effect on the increase in morphine ED50, paw pressure test",Sprague-Dawley rats [2]; [10],completely prevented the increase in ED50
same,"effect on the increase in morphine ED50, tail flick test",Sprague-Dawley rats [2]; [10],partially prevented the increase in ED50
same,development of acute tolerance to morphine,Sprague-Dawley rats [2],very effectively inhibit
CN1CC[C@]23c4c5ccc(O)c4O[C@H]2[C@@H](O)C=C[C@H]3[C@H]1C5 [morphine],time of peak analgesia after a single dose of morphine,"Sprague-Dawley rats [1]; morphine 15 μg intrathecal, tail flick and paw pressure tests",30 min
same,"decline of the analgesic effect of morphine observed after the first injection, at the end of the 240 minute test period",Sprague-Dawley rats [2]; 3 successive doses of morphine 15 μg intrathecal at 90 minute intervals,~80%
same,"increase in morphine ED50, paw pressure test",Sprague-Dawley rats [2]; [11],4 fold
same,"increase in morphine ED50, tail flick test",Sprague-Dawley rats [2]; [11],~5 fold
same,cumulative morphine dose-response curve 24 hours after repeated morphine injections,"Sprague-Dawley rats [2]; morphine 15 μg x 3 at 90 minute intervals, relative to saline treatment",shifted to the right; also recorded: parallel right shift
same,"ED50 value of morphine, paw pressure test",Sprague-Dawley rats [2]; [12],~7 µg and ~8 µg
same,"ED50 value of morphine, tail flick test",Sprague-Dawley rats [2]; [12],~5 µg
same,"increase in morphine ED50 values, both tests",Sprague-Dawley rats [3]; chronic treatment with morphine 15 μg/day for 5 days,~8 fold
same,ED50 values for morphine in the control group,"Sprague-Dawley rats [3]; group that had received atipemazole alone (0.8 ng/day) for 5 days, day 6, tail flick and paw pressure tests",approximately 5 μg
same,time course of analgesic response on day 5,Sprague-Dawley rats [3]; morphine 15 μg alone at conclusion of chronic treatment,drastically reduced
same,analgesic response to morphine on day 1,"Sprague-Dawley rats [3]; morphine 15 μg intrathecal, 30 minutes after administration",maximal level
same,"effect of morphine at 60 minutes post injection, both tests",Sprague-Dawley rats [3]; morphine 15 μg/day alone,very much reduced
same,cumulative morphine dose-response curve on day 6 after chronic morphine treatment,Sprague-Dawley rats [3]; morphine 15 μg/day for 5 days,rightward shift
same,magnitude of morphine effect with daily drug administration,"Sprague-Dawley rats [3]; morphine 15 μg/day intrathecal for 5 days, 30 minutes after administration",progressively declined towards baseline value by day 5
same,"morphine ED50, paw pressure test",Sprague-Dawley rats [4]; [13],~48 µg
same,"morphine ED50, tail flick test",Sprague-Dawley rats [4]; [13],~47 µg
same,"morphine ED50, paw pressure test",Sprague-Dawley rats [4]; [14],~8 µg
same,"morphine ED50, tail flick test",Sprague-Dawley rats [4]; [14],~6 µg
same,acute morphine dose-response curve relative to morphine and atipemazole group,"Sprague-Dawley rats [4]; morphine 15 μg alone for 10 days, day 11",displaced to the right
C=CCN1CC[C@]23c4c5ccc(O)c4O[C@H]2C(=O)CC[C@@]3(O)[C@H]1C5 [naloxone],effect on alpha-2 receptor agonist analgesia,mouse,does not affect
Cc1ccc(N(CC2=NCCN2)c2cccc(O)c2)cc1 [phentolamine],development of tolerance to morphine analgesia,mice,suppress the development of tolerance
COc1cc2nc(N3CCN(C(=O)c4ccco4)CC3)nc(N)c2cc1OC [prazoin],development of tolerance to morphine analgesia,mice,suppress the development of tolerance
CC(C)NCC(O)COc1cccc2ccccc12 (centres unmarked) [propranolol],development of tolerance to morphine analgesia,mice,suppress the development of tolerance
